# From US20200181284A1, “EPIGENETIC INHIBITORS FOR SENSITIZING HEMATOLOGIC OR OTHER MALIGNANCIES TO GLUCOCORTICOID THERAPY” (UNIVERSITY OF SOUTHERN CALIFORNIA, priority 2017, published 2020)
# “Also recorded” adds a separate entry of the source.
# Key:
# hG9a = target: T1, hG9a (Homo sapiens, UniProt Q96KQ7); experiment: Methylation of HA-hG9a in Cos-7 cells (pan met-K immunoprecipitation/immunoblot); assay type: cell-based, African green monkey; conditions: Cos-7 cells, 24 h
# T1 construct: transfected with a plasmid encoding full length HA-hG9a and treated with 2 μM UNC0646; expressed in transfected cells; host or cells: Cos-7
# T1 sequence (Q96KQ7 1-1210): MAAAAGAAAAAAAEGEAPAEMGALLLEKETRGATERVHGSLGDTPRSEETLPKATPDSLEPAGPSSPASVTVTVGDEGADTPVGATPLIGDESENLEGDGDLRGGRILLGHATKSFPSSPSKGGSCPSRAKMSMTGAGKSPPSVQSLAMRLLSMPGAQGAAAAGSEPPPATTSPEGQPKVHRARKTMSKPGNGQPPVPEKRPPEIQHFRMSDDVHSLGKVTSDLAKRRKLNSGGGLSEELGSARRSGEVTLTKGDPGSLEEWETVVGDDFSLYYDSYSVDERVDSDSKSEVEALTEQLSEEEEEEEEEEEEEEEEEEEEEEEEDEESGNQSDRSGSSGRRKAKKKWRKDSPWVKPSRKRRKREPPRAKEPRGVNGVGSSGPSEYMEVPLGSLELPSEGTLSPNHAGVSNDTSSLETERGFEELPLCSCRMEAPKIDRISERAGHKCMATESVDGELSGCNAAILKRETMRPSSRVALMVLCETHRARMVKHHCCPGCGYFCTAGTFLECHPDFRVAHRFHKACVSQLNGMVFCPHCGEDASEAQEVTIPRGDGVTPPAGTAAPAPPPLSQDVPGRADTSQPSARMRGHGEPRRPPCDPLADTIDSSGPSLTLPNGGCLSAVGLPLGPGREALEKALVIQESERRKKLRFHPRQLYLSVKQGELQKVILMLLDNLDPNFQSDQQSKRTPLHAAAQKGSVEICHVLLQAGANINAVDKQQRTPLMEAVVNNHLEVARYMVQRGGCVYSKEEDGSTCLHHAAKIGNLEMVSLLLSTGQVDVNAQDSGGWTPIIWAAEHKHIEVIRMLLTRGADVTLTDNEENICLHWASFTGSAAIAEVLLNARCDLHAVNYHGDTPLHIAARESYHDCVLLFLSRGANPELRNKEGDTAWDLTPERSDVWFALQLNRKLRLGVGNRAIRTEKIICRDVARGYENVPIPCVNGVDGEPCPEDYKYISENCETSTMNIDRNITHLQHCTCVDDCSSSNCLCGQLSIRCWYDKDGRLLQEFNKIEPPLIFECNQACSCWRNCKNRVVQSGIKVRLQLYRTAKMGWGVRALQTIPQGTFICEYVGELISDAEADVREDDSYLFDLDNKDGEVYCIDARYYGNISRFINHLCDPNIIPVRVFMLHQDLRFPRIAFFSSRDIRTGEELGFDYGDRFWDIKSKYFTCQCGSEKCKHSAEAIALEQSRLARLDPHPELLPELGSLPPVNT
# Experimental: Cells were transiently transfected (where indicated) using Lipofectamine 2000 (Invitrogen) with 5 μg each of the indicated plasmids according to the manufacturer's protocol. […] Protein extracts were incubated with 1 μg of the indicated primary antibodies overnight at 4° C. with shaking. Protein A/G Plus Agarose (Santa Cruz sc-2003) beads were added and the mixture was incubated 2 hr at 4° C. The immunoprecipitates were separated on SDS-PAGE. Immunoblotting was conducted with primary antibodies against HA epitope (3F10 Roche Applied Science); G9a (G6919), FLAG (F1804), (3-actin (A5441), or GAPDH (G9545) from Sigma; aurora kinase B (ab2254), HP1γ (ab10480), HP1γ (ab56978), phospho-593-HP1γ (ab45270) or pan methyllysine (ab23366) from Abcam; GR (sc-8992) from Santa Cruz; GLP (09-078), or pan phospho-threonine (AB1607) from Millipore; phospho-S211-GR (#4161), H3K9me3 (#13969), H3S10ph (#53348), Histone H3 (#4499) from Cell signaling; or E-cadherin (610182) from BD transduction laboratories. Secondary antibodies from Santa Cruz Biotechnology (anti-rat) and Promega (anti-rabbit and anti-mouse) were used for chemiluminescence detection using Super Signal West Dura (Thermo Scientific) for proteins with low expression levels and ECL prime detection reagent (Amersham) for all other proteins according to the manufacturers' instructions. In immunoprecipitation experiments 3% of the input of each sample was analyzed by immunoblot using the antibodies listed.
# Lysates were immunoprecipitated (IP) with pan met-K antibody and immunoblotted with HA antibody (top), or the usage of the two antibodies was reversed (bottom). Expression of HA-tagged proteins and β-actin (loading control) in the unfractionated extracts is shown at the bottom (Input). For FIG. 17D, Cos-7 cells were transfected with a plasmid encoding full length HA-hG9a and treated with 2 μM UNC0646 or vehicle DMSO for 24 h. Lysates were immunoprecipitated with pan met-K antibody and immunoblotted with HA antibody (top), or the usage of the two antibodies was reversed (bottom).
# Lysates were immunoprecipitated with pan met-K antibody and immunoblotted with HA antibody (top).
# NALM6 cells = experiment: Cell death assay (Presto Blue, 72 h) with dex plus inhibitor; assay type: cell-based, human; conditions: NALM-6, 16 nM Alisertib, 72 h
# Experimental: Cells were plated in CellStar low evaporation lid 96-well round-bottom plate at a density of 100,000 cells/ml. Directly after plating, cells were treated in triplicate with serial dilutions of dexamethasone or vehicle control (0.1% ethanol). After 72 h, cell viability of each well was analyzed in duplicate using the Presto Blue Assay Reagent (Life Technologies). Fluorescence was measured and data were analyzed with Prism6 software.
# FIGS. 40A, 40B, 40C, 40D-1, 40D-2, 40D-3, and 40D-4 show Aurora kinase B inhibitors sensitizing NALM6 cells to GC-induced cell death. As shown in FIGS. 40A and 40B, NALM6 cells were treated with the indicated dex concentration in addition to 0.75 μM ZM447439 (FIG. 40A), 16 nM AZD2811 (FIG. 40B), or equivalent volume of vehicle DMSO for 72 h, and cell survival was measured by a fluorescence metabolic assay. In each condition, the value measured with dex was normalized to the fluorescence value measured with ethanol. Percentage of survival is shown as the mean±SEM of 4 independent experiments and p-values for individual dex concentrations were calculated using a paired t-test. *p≤0.05, **p≤0.01, * * *p≤0.001. F-test comparing the two curves: p≤0.001. Insets show the EC50s that were calculated as the concentration at which half the cells remained alive, compare to vehicle controls. Error bars depict the SEM of 4 independent experiments and p-values were calculated to compare AURKB inhibitor treatment to DMSO using a paired t-test ** p≤0.01, * * *p≤0.001. […] The indicated proteins were then examined by immunoblot. As shown in FIGS. 40D-1, 40D-2, 40D-3, and 40D-4, NALM6 cells pre-treated with AZD2811 (16 nM) or DMSO for 24 h, were then treated for 8 h with 100 nM dex or ethanol. mRNA levels for the indicated GR target genes were measured by RT-qPCR and normalized to β-actin mRNA levels.
# FIGS. 48A, 48B, 48C, 48D, 48E, and 48F show the effect of AURKB inhibitors on EHMT2 phosphorylation and dex-induced cell death. […] In each condition, the value measured with dex was normalized to the fluorescence value measured with ethanol. Percentage of survival is shown as the mean±SEM of 4 independent experiments and p-values for individual dex concentrations were calculated using a paired t-test. *p≤0.05, **p≤0.01, * * *p≤0.001. F-test comparing the two curves: p≤0.001. EC50s were calculated as the concentration at which half the cells remained alive, compare to vehicle controls. Error bars depict the SEM of 4 independent experiments and p-value was calculated to compare ZM treatment to DMSO using a paired t-test **p≤0.01, * * *p≤0.001. […] EC50s were calculated as the concentration at which half the cells remained alive, compare to vehicle controls. Error bars depict the SEM of 4 independent experiments and p-value was calculated to compare alisertib treatment to DMSO using a paired t-test. […] (E-F) RCH-ACV cells were treated with the indicated dex concentration in addition to 0.75 μM ZM447439 (FIG. 48E), 16 nM AZD2811 (FIG. 48F), or DMSO for 72 h, and cell survival was measured by a fluorescence metabolic assay. In each condition, the value measured with dex was normalized to the fluorescence value measured with ethanol. Percentage of survival is shown as the mean±SEM of 5 individual experiments and the p-value for each dex concentration was calculated using a paired t-test. *p≤0.05, **p≤0.01, * * *p≤0.001. F-test comparing the two curves: p≤0.001.
# FIGS. 55A, 55B, and 55C show JIB-04 enhances GC-induced death of B-ALL cell line NALM6.
structure (smiles),measurement,setting,value
"Nc1ncnc2c1ncn2C(C=O)OC(C=O)CO (stereo not drawn) [Adox, adenosine dialdehyde]",pan-methyllysine antibody signal on wild type hG9a,hG9a; 40 μM,strongly decreased
COc1cc(Nc2ncc3c(n2)-c2ccc(Cl)cc2C(c2c(F)cccc2OC)=NC3)ccc1C(=O)O [Alisertib],cell survival with dex,NALM6 cells,not significant; also recorded: did not have any effect
COc1cc2c(NC3CCN(C(C)C)CC3)nc(N3CCC(F)(F)CC3)nc2cc1OCCCN1CCCC1 [UNC0642],pan-methyllysine antibody signal on wild type hG9a,hG9a; 2 μM inhibitor,strongly decreased
